pEC50: −log10 of the molar value.
How the values were obtained:
PK comparison, mouse = assay type: in vivo; conditions: in vivo, 2 mg/kg, calculated from doses of 2 and 10 mg/kg, analyte = label
Source text: Table 4 illustrates the PK comparison of CMX001 with CMX021 and CMX064 for mouse, rabbit and human.

JCV = test: First fifteen EIND patients: JCV; assay type: in vivo, human; conditions: one patient
vaccinia virus = assay type: in vivo, human; conditions: detectable while on ST-246 and VIG
[1] = Single-dose, dose-escalation study in healthy adult volunteers; assay type: in vivo, human
Procedure: A randomized double-blind, placebo-controlled, single-dose, dose-escalation study of CMX001 in healthy adult volunteers was conducted.
Nine single dose cohorts-CMX001:placebo (2:1)
Six subjects per cohort; 36 received CMX001; 18 received placebo
Highest dose was 2 mg/kg (140 mg in a 70 kg person)
Six multiple dose cohorts-CMX001:placebo (2:1) (3 doses over 3 weeks)
Five subjects per cohort; 20 received CMX001; 10 received placebo

HHV-6 = test: In vitro potency against dsDNA viruses: HHV-6; assay type: cell-based
HCMV(AD169) = test: In vitro potency against dsDNA viruses: HCMV; assay type: cell-based
HPV 18 = test: In vitro potency against dsDNA viruses: HPV 18; assay type: cell-based
JCV (Mad-4) = JCV (Mad-4) replication in COS-7 cells (qPCR, immunofluorescence); assay type: cell-based, JC virus
ADV = test: EIND patients previously treated with other antivirals: ADV; assay type: in vivo, human; conditions: EIND 108104
Procedure: (§1) A further study has been conducted on patients with various viral infections and diseases associated with virus.
(§2) As shown in Table 5(b), all patients that have been previously treated with other antiviral agents for example cidofovir. […] After these patients are treated with CMX001, the patients show significant improvements.

HCMV (AD169) = test: HCMV real time array of viral transcripts; assay type: cell-based; conditions: CDV 50 μM, GCV 15 μM, CMX001 0.5 μM; ANOVA P<0.05
[2] = Safety of CMX001 in HSCT and renal transplant recipients with BK virus viruria (blinded); assay type: in vivo, human; design: Mean ALT: unit not given here
Source text: Safety and tolerability of CMX001 in HSCT and renal transplant recipients with BK virus viruria is studied. The safety and tolerability of CMX001 in a post-transplant population is investigated and levels of BKV DNA in urine and plasma over time is monitored.
Twelve HSCT and twelve renal transplant recipients randomized 2:1 (CMX001:Placebo)
BKV viruria >10^4, renal transplant recipients allowed with viremia <10^4
Concomitant valganciclovir/ganciclovir excluded for HSCT recipients only Dosing Schedule: […]

BKV = test: EIND patients previously treated with other antivirals: BKV; assay type: in vivo, human
Procedure: as §1, §2

AdV 5 = test system: AdV 5; design: species or system Syrian Hamster; conditions: hamster, in vivo
[3] = human, oral, CMX001 2 mg/kg single dose, plasma, Mean
[4] = renal transplant subjects, Day 0
[5] = renal transplant subjects, Day 7
[6] = renal transplant subjects, Day 14
[7] = renal transplant subjects, Day 21
[8] = renal transplant subjects, Day 28
[9] = stem cell transplant subjects, Day 0
[10] = stem cell transplant subjects, Day 7
[11] = stem cell transplant subjects, Day 14
[12] = stem cell transplant subjects, Day 21
[13] = stem cell transplant subjects, Day 28

CCCCCCCCCCCCCCCCOCCCOP(=O)(O)CO[C@H](CO)Cn1ccc(N)nc1=O [CMX001, Hexadecyloxypropyl-cidofovir]
AUC (PK comparison, mouse; after CMX001): 83.1 ng·h/mL | Cmax (PK comparison, mouse; after CMX001, read-out: Cmax): 7.9 ng/mL | JCV in cerebrospinal fluid (CSF) and urine (JCV): became undetectable | viable vaccinia in lesions (vaccinia virus): Eliminated | AUC(0-t) [1, 3]: 2610 ng·h/mL | Cmax [1, 3]: 350 ng/mL | Tmax [1, 3]: 3 h | half-life [1, 3]: 24 h | AUC(0-inf) ([1]; human, oral, CMX001 2 mg/kg single dose, plasma, Mean, read-out: AUCinf_obs): 2650 ng·h/mL | tolerability ([1]; single and multiple doses): well tolerated | Enhanced Activity (HHV-6; CMX001 versus cidofovir EC50): 50 | pEC50 (HHV-6; HSB2, HSB-2): 8.40 | Enhanced Activity (HCMV(AD169); CMX001 versus cidofovir EC50): 422 | pEC50 (HCMV(AD169); Human betaherpesvirus 5, AD169, MRC5, MRC-5): 9.05 | Enhanced Activity (HPV 18; CMX001 versus cidofovir EC50): 1229 | pEC50 (HPV 18; HeLa): 6.38 | reduction of extracellular JCV loads (JCV (Mad-4); 0.6 μM CMX001): approximately 90% | JCV VP1 immunofluorescence (JCV (Mad-4); 1.25 μM CMX001, 7 d.p.i.): significant reduction of JCV VP1 signal | change in the JCV load over 7 days (JCV (Mad-4); 5 μM CMX001): less than 1 log | JCV VP1 immunofluorescence (JCV (Mad-4); 5 μM CMX001, 7 d.p.i.): essentially no VP1 positive cells could be observed | extracellular JCV load (JCV (Mad-4); 5 μM CMX001, 7 d.p.i. (day 1: 1.34×10^7; untreated: 5.67×10^10)): 8.85×10^7 geq/ml | IC90 (JCV (Mad-4); JC polyomavirus, 120 h, COS-7, 5 d.p.i., viral input subtracted, read-out: IC-90, extracellular JCV load): 600 nM | pEC50 (JCV (Mad-4); JC polyomavirus, 120 h, COS-7, 5 days): 6.82 | AdV viruria rebound, distance from baseline (ADV): within 0.7 log10 from baseline. | hemorrhagic cystitis (ADV): cystitis improved. | initial decline of AdV viruria (ADV): 2.8 log10 decline, but it rebounded to | levels of viral transcripts (HCMV (AD169)): Significant reductions in levels of most viral transcripts | Mean Serum creatinine ([2]; renal transplant subjects, 40 mg/wk×5, Day 0): 1.3 mg/dL | Mean ALT [2, 4]: 19.3 | Mean absolute Neutrophil count [2, 4]: 3.16 1000 per cu mm | Mean ALT [2, 5]: 22.4 | Mean Serum creatinine [2, 5]: 1.3 mg/dL | Mean absolute Neutrophil count [2, 5]: 4.88 1000 per cu mm | Mean ALT [2, 6]: 21.4 | Mean Serum creatinine [2, 6]: 1.3 mg/dL | Mean absolute Neutrophil count [2, 6]: 4.59 1000 per cu mm | Mean ALT [2, 7]: 19.6 | Mean Serum creatinine [2, 7]: 1.4 mg/dL | Mean absolute Neutrophil count [2, 7]: 3.46 1000 per cu mm | Mean ALT [2, 8]: 18.2 | Mean Serum creatinine [2, 8]: 1.4 mg/dL | Mean absolute Neutrophil count [2, 8]: 4.42 1000 per cu mm | Mean Serum creatinine ([2]; stem cell transplant subjects, 40 mg/wk×5, Day 0): 0.93 mg/dL | Mean ALT [2, 9]: 32.7 | Mean absolute Neutrophil count [2, 9]: 4.40 1000 per cu mm | Mean ALT [2, 10]: 17 | Mean Serum creatinine [2, 10]: 1.0 mg/dL | Mean absolute Neutrophil count [2, 10]: 4.40 1000 per cu mm | Mean ALT [2, 11]: 17.5 | Mean Serum creatinine [2, 11]: 0.9 mg/dL | Mean absolute Neutrophil count [2, 11]: 3.55 1000 per cu mm | Mean ALT [2, 12]: 21.0 | Mean Serum creatinine [2, 12]: 0.9 mg/dL | Mean absolute Neutrophil count [2, 12]: 3.50 1000 per cu mm | Mean ALT [2, 13]: 20.0 | Mean Serum creatinine [2, 13]: 1.2 mg/dL | Mean absolute Neutrophil count [2, 13]: 3.15 1000 per cu mm | hemorrhagic cystitis (BKV; EIND 107275): improved while on CMX001 | BK viruria (BKV; EIND 107640, declined from 120 million): 48 million copies/mL | BK viremia (BKV; EIND 107640, decreased from 1900): 1900 to 28 copies/mL; BK | Hemorragic cystitis (BKV; EIND 108897): Hemorragic cystitis resolved | BKV in urine (BKV; EIND 108897, at last dose (baseline 7.7 log10), 4 mg/kg twice weekly 2 weeks): log10 at baseline to 5.1 log10 at last | decrease of BKV in urine (BKV; EIND 109232, first two weeks, 2 mg/kg twice weekly): BKV in urine decreased 2.2 log10 | reduction of infectious AdV5 titers in liver (AdV 5): 6 logs
